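Five compound concentrations were applied to cells in 96-well plates for 48 hours; endpoints were derived by simple linear interpolation of the resulting dose-response curve. GI50: concentration for 50% inhibition of growth.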 The source made the active and inactive calls. No stated cut-off is given here; in the data, active = GI50 up to about 1.1 µM and inactive = higher. Where a SMILES comes first, the peptide text is derived from it.
What was measured:
Test in all cases: NCI-60 cell line screen, 48 h
DU-145 = tested on: DU-145
Hs-578T = tested on: Hs-578T
SK-OV-3 = tested on: SK-OV-3
SK-MEL-5 = tested on: SK-MEL-5
HCT-116 = tested on: HCT-116
SR = tested on: SR
Malme-3M = tested on: Malme-3M
OVCAR-3 = tested on: OVCAR-3
M14 = tested on: M14
SF-295 = tested on: SF-295
MDA-MB-435 = tested on: MDA-MB-435
MDA-MB-231 = tested on: MDA-MB-231
SNB-19 = tested on: SNB-19
SNB-75 = tested on: SNB-75
CCRF-CEM = tested on: CCRF-CEM
NCI-H23 = tested on: NCI-H23
OVCAR-5 = tested on: OVCAR-5
A498 = tested on: A498
MDA-N = tested on: MDA-N
KM12 = tested on: KM12
CAKI-1 = tested on: CAKI-1
NCI/ADR-RES = tested on: NCI/ADR-RES
NCI-H460 = tested on: NCI-H460
MOLT-4 = tested on: MOLT-4
HL-60 = tested on: HL-60
SN12C = tested on: SN12C
UO-31 = tested on: UO-31
T47D = tested on: T47D
COLO 205 = tested on: COLO 205
SK-MEL-28 = tested on: SK-MEL-28
HCC 2998 = tested on: HCC 2998
HT-29 = tested on: HT-29
RXF 393 = tested on: RXF 393
U-251 = tested on: U-251
HCT-15 = tested on: HCT-15
RPMI-8226 = tested on: RPMI-8226
HOP-62 = tested on: HOP-62
SK-MEL-2 = tested on: SK-MEL-2
IGROV-1 = tested on: IGROV-1
K562 = tested on: K562
MCF7 = tested on: MCF7
UACC-62 = tested on: UACC-62
BT-549 = tested on: BT-549
HOP-92 = tested on: HOP-92
NCI-H226 = tested on: NCI-H226
NCI-H522 = tested on: NCI-H522
OVCAR-8 = tested on: OVCAR-8
PC-3 = tested on: PC-3
UACC-257 = tested on: UACC-257
A549 = tested on: A549
SF-539 = tested on: SF-539
ACHN = tested on: ACHN
786-0 = tested on: 786-0
EKVX = tested on: EKVX
OVCAR-4 = tested on: OVCAR-4
TK-10 = tested on: TK-10
SF-268 = tested on: SF-268

For CN(C)C(=S)/N=C1\SC(=N\c2ccccc2)/C(=N/c2ccccc2)N1c1ccc([N+](=O)[O-])cc1, which GI50 (DU-145) is on record?
The GI50 was > 100 µM (inactive).

And the GI50 (Hs-578T)?
Its GI50 is > 100 µM (inactive).

And the GI50 (SK-OV-3)?
Its GI50 is > 100 µM (inactive).

And the GI50 (SK-MEL-5)?
Its GI50 is > 100 µM (inactive).

What about the GI50 (HCT-116) of the same compound?
Its GI50 is > 100 µM (inactive).

And the GI50 (SR)?
The GI50 was > 100 µM (inactive).

What about the GI50 (Malme-3M) of the same compound?
Its GI50 is > 100 µM (inactive).

And the GI50 (OVCAR-3)?
The GI50 was > 100 µM (inactive).

What about the GI50 (M14) of the same compound?
Its GI50 is > 100 µM (inactive).

What about the GI50 (SF-295) of the same compound?
The GI50 was > 100 µM (inactive).

What about the GI50 (MDA-MB-435) of the same compound?
Its GI50 is > 100 µM (inactive).

And the GI50 (MDA-MB-231)?
Its GI50 is > 100 µM (inactive).

What about the GI50 (SNB-19) of the same compound?
The GI50 was > 100 µM (inactive).

What about the GI50 (SNB-75) of the same compound?
The GI50 was > 100 µM (inactive).

What about the GI50 (CCRF-CEM) of the same compound?
Its GI50 is > 100 µM (inactive).

And the GI50 (NCI-H23)?
The GI50 was > 100 µM (inactive).

What about the GI50 (OVCAR-5) of the same compound?
The GI50 was > 100 µM (inactive).

And the GI50 (A498)?
Its GI50 is > 100 µM (inactive).

What about the GI50 (MDA-N) of the same compound?
Its GI50 is > 100 µM (inactive).

And the GI50 (KM12)?
The GI50 was > 100 µM (inactive).

And the GI50 (CAKI-1)?
The GI50 was > 100 µM (inactive).

And the GI50 (NCI/ADR-RES)?
Its GI50 is > 100 µM (inactive).

What about the GI50 (NCI-H460) of the same compound?
Its GI50 is > 100 µM (inactive).

And the GI50 (MOLT-4)?
Its GI50 is 38.5 µM (inactive).

And the GI50 (HL-60)?
Its GI50 is > 100 µM (inactive).

What about the GI50 (SN12C) of the same compound?
Its GI50 is > 100 µM (inactive).

What about the GI50 (UO-31) of the same compound?
Its GI50 is > 100 µM (inactive).

What about the GI50 (T47D) of the same compound?
Its GI50 is > 100 µM (inactive).

What about the GI50 (COLO 205) of the same compound?
The GI50 was > 100 µM (inactive).

And the GI50 (SK-MEL-28)?
Its GI50 is > 100 µM (inactive).

And the GI50 (HCC 2998)?
Its GI50 is > 100 µM (inactive).

What about the GI50 (HT-29) of the same compound?
Its GI50 is > 100 µM (inactive).

And the GI50 (RXF 393)?
The GI50 was 21.8 µM (inactive).

And the GI50 (U-251)?
The GI50 was > 100 µM (inactive).

What about the GI50 (HCT-15) of the same compound?
The GI50 was greater than 100 µM.

What about the GI50 (RPMI-8226) of the same compound?
The GI50 was > 100 µM (inactive).

And the GI50 (HOP-62)?
The GI50 was > 100 µM (inactive).

And the GI50 (SK-MEL-2)?
The GI50 was > 100 µM (inactive).

And the GI50 (IGROV-1)?
The GI50 was > 100 µM (inactive).

And the GI50 (K562)?
The GI50 was > 100 µM (inactive).

What about the GI50 (MCF7) of the same compound?
Its GI50 is > 100 µM (inactive).

What about the GI50 (UACC-62) of the same compound?
The GI50 was > 100 µM (inactive).

And the GI50 (BT-549)?
Its GI50 is > 100 µM (inactive).

And the GI50 (HOP-92)?
Its GI50 is > 100 µM (inactive).

And the GI50 (NCI-H226)?
The GI50 was > 100 µM (inactive).

And the GI50 (NCI-H522)?
Its GI50 is > 100 µM (inactive).

And the GI50 (OVCAR-8)?
Its GI50 is > 100 µM (inactive).

And the GI50 (PC-3)?
The GI50 was 8.32 µM (inactive).

How did the GI50 (DU-145) turn out when CC(C)CC(NC(=O)C(Cc1ccccc1)NC(=O)C(Cc1c[nH]c2ccccc12)NC(=O)CNC(=O)C(N)Cc1ccc(O)cc1)C(=O)O (centres undefined) (H-YGWFL-OH; configuration not given here) was run?
The GI50 was 31.8 µM (inactive).

And the GI50 (UACC-257)?
The GI50 was 41.2 µM (inactive).

What about the GI50 (A549) of the same compound?
The GI50 was 37.4 µM (inactive).

What about the GI50 (Hs-578T) of the same compound?
The GI50 was 42 µM (inactive).

And the GI50 (SK-OV-3)?
Its GI50 is > 100 µM (inactive).

What about the GI50 (SK-MEL-5) of the same compound?
Its GI50 is 29 µM (inactive).

And the GI50 (HCT-116)?
The GI50 was 27.4 µM (inactive).

And the GI50 (SR)?
The GI50 was 32.4 µM (inactive).

What about the GI50 (Malme-3M) of the same compound?
Its GI50 is 21.2 µM (inactive).

What about the GI50 (OVCAR-3) of the same compound?
Its GI50 is 23.2 µM (inactive).

What about the GI50 (M14) of the same compound?
The GI50 was 47.6 µM (inactive).

What about the GI50 (SF-295) of the same compound?
The GI50 was 49.7 µM (inactive).

What about the GI50 (SF-539) of the same compound?
The GI50 was 33.8 µM (inactive).

And the GI50 (MDA-MB-435)?
Its GI50 is 34.9 µM (inactive).

What about the GI50 (MDA-MB-231) of the same compound?
Its GI50 is 52.1 µM (inactive).

And the GI50 (SNB-19)?
The GI50 was 51.6 µM (inactive).

And the GI50 (ACHN)?
The GI50 was 44.5 µM (inactive).

What about the GI50 (SNB-75) of the same compound?
The GI50 was 30.8 µM (inactive).

And the GI50 (CCRF-CEM)?
The GI50 was 42.6 µM (inactive).

And the GI50 (786-0)?
Its GI50 is 23.6 µM (inactive).

And the GI50 (NCI-H23)?
Its GI50 is 30.1 µM (inactive).

What about the GI50 (OVCAR-5) of the same compound?
The GI50 was > 100 µM (inactive).

What about the GI50 (A498) of the same compound?
Its GI50 is 32.3 µM (inactive).

And the GI50 (MDA-N)?
The GI50 was 35.4 µM (inactive).

What about the GI50 (KM12) of the same compound?
The GI50 was 24.6 µM (inactive).

And the GI50 (CAKI-1)?
Its GI50 is 34.9 µM (inactive).

What about the GI50 (NCI/ADR-RES) of the same compound?
The GI50 was 67.6 µM (inactive).

What about the GI50 (NCI-H460) of the same compound?
Its GI50 is 44.4 µM (inactive).

And the GI50 (MOLT-4)?
Its GI50 is 59.7 µM (inactive).

What about the GI50 (EKVX) of the same compound?
The GI50 was 35.2 µM (inactive).

What about the GI50 (HL-60) of the same compound?
Its GI50 is 24.3 µM (inactive).

And the GI50 (SN12C)?
Its GI50 is 48.6 µM (inactive).

And the GI50 (UO-31)?
Its GI50 is 81.3 µM (inactive).

And the GI50 (T47D)?
The GI50 was 25.6 µM (inactive).

And the GI50 (COLO 205)?
The GI50 was 16.4 µM (inactive).

And the GI50 (OVCAR-4)?
The GI50 was 30.2 µM (inactive).

And the GI50 (SK-MEL-28)?
The GI50 was 95.3 µM (inactive).

What about the GI50 (HCC 2998) of the same compound?
Its GI50 is 34.3 µM (inactive).

What about the GI50 (HT-29) of the same compound?
The GI50 was 30.8 µM (inactive).

What about the GI50 (TK-10) of the same compound?
Its GI50 is 78.7 µM (inactive).

What about the GI50 (RXF 393) of the same compound?
The GI50 was 40.3 µM (inactive).

What about the GI50 (SF-268) of the same compound?
Its GI50 is 47.3 µM (inactive).

And the GI50 (U-251)?
The GI50 was 34.6 µM (inactive).

What about the GI50 (HCT-15) of the same compound?
Its GI50 is 69 µM.

What about the GI50 (RPMI-8226) of the same compound?
Its GI50 is 24.5 µM (inactive).

What about the GI50 (HOP-62) of the same compound?
The GI50 was 46.5 µM (inactive).

What about the GI50 (SK-MEL-2) of the same compound?
Its GI50 is 81.3 µM (inactive).

And the GI50 (IGROV-1)?
Its GI50 is 58.7 µM (inactive).

And the GI50 (MCF7)?
Its GI50 is 37.4 µM (inactive).

What about the GI50 (UACC-62) of the same compound?
The GI50 was 67.3 µM (inactive).

What about the GI50 (BT-549) of the same compound?
The GI50 was > 100 µM (inactive).

What about the GI50 (HOP-92) of the same compound?
Its GI50 is 14 µM (inactive).

And the GI50 (NCI-H226)?
Its GI50 is 46.8 µM (inactive).

And the GI50 (NCI-H522)?
Its GI50 is 34 µM (inactive).

What about the GI50 (OVCAR-8) of the same compound?
Its GI50 is 46.5 µM (inactive).

And the GI50 (PC-3)?
The GI50 was 44.7 µM (inactive).
